The target in one data set is T1, CMPK2 (Homo sapiens, UniProt Q5EBM0).
T1 sequence (Q5EBM0 22-449): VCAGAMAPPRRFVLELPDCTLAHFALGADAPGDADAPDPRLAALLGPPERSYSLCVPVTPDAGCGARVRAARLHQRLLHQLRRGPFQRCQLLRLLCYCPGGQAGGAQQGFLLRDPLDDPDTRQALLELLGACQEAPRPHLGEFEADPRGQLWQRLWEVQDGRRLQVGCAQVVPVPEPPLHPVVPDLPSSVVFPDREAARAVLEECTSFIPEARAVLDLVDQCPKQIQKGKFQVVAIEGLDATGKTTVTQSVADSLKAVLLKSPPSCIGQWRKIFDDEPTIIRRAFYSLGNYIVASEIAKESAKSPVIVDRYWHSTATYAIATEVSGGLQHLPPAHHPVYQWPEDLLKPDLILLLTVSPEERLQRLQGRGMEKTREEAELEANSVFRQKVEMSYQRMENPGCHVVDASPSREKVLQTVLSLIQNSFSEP
Put plainly: CMPK2 kinase activity assay (ADP-GLO). The class given is biochemical. In general terms: ADP-Glo turns the ADP formed in a reaction into a luminescent signal.

Data set [1] has as its target T2, purified CMPK2 protein (WT) (Homo sapiens, UniProt Q5EBM0).
T2 construct: the N‐terminus was truncated by 22 amino acids; 6xHis (C); made in house; host or cells: FreeStyle 293-F cells (pTT5 vector)
T2 sequence (Q5EBM0 22-449): T1 sequence (Q5EBM0 22-449)
As to the kind of experiment: Microscale thermophoresis (MST) binding to CMPK2. The procedure:
The MST assay is an emerging technique used to quantitatively elucidate binding. The binding parameter between CMPK2 and DP was measured using MST on a Monolith NT.115 system (Germany). CMPK2 was fluorescently labeled with the Monolith NT Protein Labeling Kit RED (L018, NanoTemper Technologies GmbH, Munich, Germany) according to the manufacturer's instructions. The Monolith NT.115 system was used with Monolith NT.115 standard capillaries (M0-[…]). MST assay buffer was used to dilute the labeled CMPK2 to 2 μM. Sixteen dilutions (1:1) of the ligand were prepared using the same buffer, starting at a concentration of 10 μM. An equivalent volume of the labeled CMPK2 was added to each of the dilutions and loaded into Monolith NT.115 standard treated capillaries (Nano Temper Technologies), which were used to measure the MST trace at a temperature of 27°C. The experimental parameters were adjusted to medium MST power and 40% LED/excitation power. The binding and dissociation constants (Kd) were evaluated and calculated using M0-Affinity analysis software version 2.1.3 (Nano Temper Technologies) for the ligand.
On the technique in general: In MST a laser heats a spot of the sample, and binding alters the fluorescence response.

The target of the next data set is CMPK2^Lys282 protein. As to the kind of experiment: MST binding to CMPK2 Lys282 mutant. More on the design: species or system human. Conditions: Lys282 mutated. The protocol:
(§1) Human CMPK2 and K265, K282 and K320 mutated CMPK2 cDNA were cloned and inserted into the pTT5 vector, and the constructed plasmid was amplified by the DH5α strain. The C‐terminus of the cDNA was fused with a 6× His tag, and the N‐terminus was truncated by 22 amino acids (Figure 1B–F and Supporting Information Figure S5A,B). When the free‐style 293‐F cells reached the proper density, approximately 1 mg of expression plasmid was premixed with 3 mg polyethylenimine in UltraFectin medium and incubated prior to transfection. This mixture was then added to the appropriate amount of fresh cell culture medium, incubated for 30 min and collected after 48 h.
(§2) The MST assay is an emerging technique used to quantitatively elucidate binding. The binding parameter between CMPK2 and DP was measured using MST on a Monolith NT.115 system (Germany). CMPK2 was fluorescently labeled with the Monolith NT Protein Labeling Kit RED (L018, NanoTemper Technologies GmbH, Munich, Germany) according to the manufacturer’s instructions. The Monolith NT.115 system was used with Monolith NT.115 standard capillaries (M0-K022). MST assay buffer was used to dilute the labeled CMPK2 to 2 μM. […] The binding and dissociation constants (Kd) were evaluated and calculated using M0-Affinity analysis software version 2.1.3 (Nano Temper Technologies) for the ligand.

Another data set addresses CMPK2^Lys320 protein. As to the kind of experiment: MST binding to CMPK2 Lys320 mutant. The arrangement: species or system human. The conditions noted are these: Lys320 mutated. The protocol:
as §1, §2

In another data set the test system is BMDMs. Put plainly: CCK-8 cytotoxicity assay. The class given is cell-based, mouse. The conditions noted are these: DP 5–80 μM. The protocol:
To detect the viability of cells, a cell counting kit 8 (CCK-8) assay was performed. BMDMs were seeded at 1×10^6 cells/ml in a 96-well plate and incubated overnight at 37℃. Then, we treated the cells with different concentrations of DP (0-160 μM) for 24 h, added CCK-8 reagent to the cell medium and incubated the cells for 1 h. Then, the optical density was measured at a wavelength of 450 nm.

Data set [2] has as its system CMPK2 expression in BMDMs. Put plainly: CMPK2 protein and mRNA expression in BMDMs. The class given is cell-based, mouse. The procedure:
Cells were lysed in NP-40 buffer containing a protease inhibitor cocktail (Roche, 11836153001) and a phosphatase inhibitor cocktail (Sigma-Aldrich, P5726). Protein concentrations were quantified using a BCA Protein Assay Kit (Beyotime, 5000T P0011). Equal amounts of protein were separated by SDS-PAGE and transferred onto nitrocellulose membranes. The membranes were then incubated with antibodies against CMPK2, NLRP3, ASC, pro-caspase-1, pro-IL-1β, GAPDH, caspase-1 and IL-1β, followed by incubation with the appropriate secondary HRP-conjugated antibodies and development with ECL.

Data set [3] concerns LPS-induced septic shock in Cmpk2^∆DMye mice. As to the kind of experiment: LPS-induced septic shock in myeloid-specific Cmpk2-deficient mice. Conditions: DP 40 mg/kg, LPS 20 mg/kg, 72 h. It counts as in vivo, mouse. The procedure:
The C57BL/6J mice used in the studies were obtained from the Model Animal Research Center of Shanghai University of Traditional Chinese Medicine. All animals were housed under a 12-hr light/dark cycle at 22-24°C with unrestricted access to food and water for the duration of the experiment except during fasting tests. Myeloid-specific Cmpk2-deficient (Cmpk2^DMye) mice were donated by Prof. Huazhang An from Shandong Provincial Key Laboratory for Rheumatic Disease and Translational Medicine. All animal experiments were approved by the Regional Ethics Committee of Shanghai University of Traditional Chinese Medicine.
Sepsis was induced by intraperitoneal injection of 8- to 12-week-old gender-matched wild-type mice with LPS (E. coli O111:B4, Sigma-Aldrich) at 20 mg per kg body weight. Mouse survival was monitored every 1 h after injection for a total of 72 h. In a separate experiment, mice were treated with the same dose of LPS, and immune sera were collected 6 h post injection. Then, the abdominal cavity was washed with PBS. The levels of IL-1β and TNF-α in serum and peritoneal lavage ﬂuid were determined by ELISA. Then, the livers, kidneys and lungs were immediately removed and washed in ice-cold PBS. They were fixed with 4% paraformaldehyde, which was used for hematoxylin-eosin (H&E), Masson staining and Sirius red staining.

Turning to `COc1c2ccc(-c3ccccc3)oc-2cc(=O)c1C` [compound 73, Dracohodin perochlorate], at CMPK2 (1 mM DP), the CMPK2 activity result was “completely inhibited”. Also, at CMPK2 (kinase activity assay, experimental triplicates, read-out: IC50 with respect to CMPK2), the IC50 (as a rule, the midpoint of a concentration-inhibition curve) turned out to be 1340 nM. Besides, the inhibition (in general, the percentage by which the read-out fell short of the control) at 10 µM at CMPK2 (read-out: CMPK2 inhibition) is greater than 50%. Besides, the dissociation constant Kd (commonly the equilibrium constant for the complex coming apart) in data set [1] was found to be 350 ± 34.9 nM. Besides, the “binding (Kd by MST)” value on CMPK2^Lys282 protein and on CMPK2^Lys320 protein was “no binding” in each case. The cell viability entry in the data set on BMDMs was “no significant change”. Further, the “mRNA expression level of Cmpk2” value in data set [2] is “decreased”. Also, the “protein expression of CMPK2” value in data set [2] (DP 2.5, 5, 10 μM) is on record as “dose‐dependently inhibited”. Further, the survival rate entry in data set [3] was “did not further improve”.

Source of the values: publication PMC10587737, “Dracorhodin targeting CMPK2 attenuates inflammation: A novel approach to sepsis therapy” (Clinical and Translational Medicine, 2023).
